# Where two headings read alike, the source gives them in different places.
# Key:
# [1] = tested on: "acetic contortions" in mice; assay: Effect on analgetic action of Tramal and Analgin on the model "acetic contortions"; format: in vivo, white mongrel mice
# Procedure: (§1) The tests were conducted on males of white mongrel mice weighing 22-24 grams. The specific pain response (“contortions”) were elicited by intraperitoneal administration to mice of 0.75% acetic acid solution. The following signs were taken into consideration: the number of seizure contractions of abdominal muscles accompanied by stretching the hind limbs and sagging the back. Analgetic effect was assessed by decrease in the number of contortions in animals in percent to the control for 15 minutes post administration of acetic acid. The technique of the tests is disclosed in Koster R., Anderson M., de Beer B.//Fed. Proc. 1959. V. 18. P. 412. Compounds under testing were administered intraperitoneally (using a probe) at a dose 10 μg/kg 60 minutes prior to injection of the acid. Diclofenac (10 mg/kg) was used as a reference drug. Analgetic effect was calculated according to the formula: […]
# The studies were carried out in accordance with the technique presented in Example 18.
# "hot plate" test in mice = assay: Analgetic activity on the model "hot plate"; format: in vivo, white mongrel mice; details: 10 mg/kg; for response vs control in vivo at 10 mg/kg / change in vivo at 10 mg/kg: Mus musculus; for response vs control in vivo at 10 mg/kg: percent of background, read-out: Latent time of NT (%); for change in vivo at 10 mg/kg: read-out: Analgesia (%)
# Procedure: The tests were conducted on males of white mongrel mice weighing 22-24 grams. The animals were individually placed on a hot plate (manufactured by the firm “Ugo Basile”), a temperature of which remained constant and was equal to 55° C. The following first manifestations of pain reaction were recorded: licking paws, jumping up prior to administration of a substance (background parameters) and 0.5, 1, 2, 3 and 4 hours post administration of a substance. Substances were administered […] (using a probe). A weighed amount of a substance was thoroughly mixed in 0.1 ml Tween 80 until a solution was obtained, then normal saline was added up to a volume of 0.5 ml. Average latent time of nociception threshold (NT) was calculated in every group. The results obtained were expressed in percent of the background values. Analgetic effect (in %) was calculated according to the formula: A−100%=X, wherein A is a background parameter; X is analgetic effect (in %)
# A is (time 0.5 to 4 hours post administration×100%): background time
# As reference drugs, Analgin (150 mg/kg), Paracetamol (200 mg/kg), Ketorol (10 mg/kg), were used.
# [2] = tested on: "acetic contortions" in mice; assay: Analgetic activity on the model "acetic contortions"; format: in vivo, white mongrel mice; details: dose 10 mg/kg (table title)
# Procedure: as §1
# wherein Ck is the number of contortions in the control group,
# Co is the number of contortions in the test group.
# cyclooxygenase = assay: In vitro effect on [14C]arachidonic acid metabolism in a cell-free homogenate of murine pulmonary tissue; format: biochemical, CBA mice; details: compound 10^−4 M, 37° C., 30 minutes
# Procedure: Studies of arachidonic acid metabolism was carried out on females CBA mice who where fed a standard vivarium fodder. Animals (mice) were sacrificed, lungs were extracted, homogenized in a glass homogenizer manufactured by the firm “Wheaton” (USA) at 4° C. in 10 volumes of 0.05 M Tris-HCl buffer. Aliquots (0.5 ml) of supernatant were incubated in 0.5 μCi [1-C^14]-arachidonic acid [C^14]-AA, “Amersham”, England; specific activity 50-60 μCi/mmole) at 37° C. for 30 minutes. Non-metabolized [αC^14]-AA and products of metabolism thereof were extracted in 20 volumes of chloroform and methanol mixture (1:1) in extraction efficacy not less than 90% assessed using [C^14]-PGF2α. [C^14]-AA and metabolites thereof were separated and identified using TLC (the plates Kieselgel 60 of the “Merck” firm, Germany) using as an organic phase, the system of solvents (ethylacetate, isooctane, acetic acid, water—110:50:20:100) and labeled standards. Densitometry of autoradiochromograms obtained on the X-ray film X-Omat AR (“Kodak”, USA) and HS 11 (“ORWO”, Germany), was performed on the densiscan KS 3 (“Kipp and Zonnen”, Holland). Quantitative analysis of individual eicosanoids was carried out using radiometry of fractions obtained by high-performance liquid chromatography (the HPLC-system of the “Gilson” form, France; the column ZORBAX C8 of the “Du Pont” firm, USA) and by elution of spots on TLC-plates. The tested compounds were administered at concentration 10^−4 M.
# [3] = tested on: mice in the model of hypoxic hypoxia with hypercapnia; assay: Hypoxic hypoxia with hypercapnia in a hermetic volume; format: in vivo; details: for Duration of hypoxia (life span), M ± m: control 25.6 ± 0.6
# Text: In order to imitate acute oxygen insufficiency the hypoxia model with hypercapnia in a hermetic volume was used (Luk'yanova L. D., Gatsura V. V., Pastushenkov L. V. Metodicheskiye recomendatsii po experimental'nomu izucheniju preparatov, predlagajemykh dlya klinicheskogo isuchenija v kachestve antihypoxicheskikh sredsyv (Methodological recommendations on experimental study of preparations proposed for clinical examination as anti-hypoxic agents). Moscow. 1960. P. 1-19]. […] weighing 27-29 grams were individually placed into 260 ml glass jars which were hermetically closed. As the animals consume oxygen, its concentration in the vessel lowers that results in death of the animals. Life span of the mice in minutes was recorded.
# mice, forced swimming = assay: "Behavioral despair" test according to Porsolt; format: in vivo; details: 50 mg/kg orally
# Procedure: The “behavioral despair” test according to Porsolt [R. D. Porsolt, A. Bertin and M. Jalfre.//in mice: A primary Screening Test for Antidepressants. Arch. Int. Pharmacodyn., 1977, 229, p. 327-336] is a predictive test for drugs with antidepressant action.
# Stress state in mice (weighing 27-30 grams) is induced by forced swimming. Animals are placed into a cylinder (height 25 cm, diameter 10 cm) filled to ⅓ with water at temperature 21-23° C. The animals cannot escape from the cylinder by themselves. Following a short time of activity the animals develop a so called “behavioral depression” characterized by hovering of animals, immobilization duration of which can be fixed. The experiment is carried out in two days. One a first day, animals are placed into the cylinder for 15 minutes (pre-test). After removal from water, the animals are dried and preparations under testing are administered. At 24 hours, the preparations are administered again and one hour later the animals are placed into the cylinder for 6 minutes. During first two minutes the animals are actively swimming; during the subsequent four minutes, behavioral depression develops manifested by immobilization (hovering) which is fixed for 4 minutes and is measure in seconds. Compound IX and the reference antidepressant drug Fluoxetin were administered orally at a dose 50 mg/kg.
# [4] = IX 10 mg/kg alone (Analgin study)
smiles,measurement,setting,value
"O=C(CCc1ccc(O)cc1)NCCc1ccccc1 [Compound IX, 3-(p-hydroxyphenyl)-propionylphenylethylamine]","Analgetic effect, %",[1]; [4],43.3%
same,"Number of contortions for 15 minutes, M ± m",[1]; [4],18.8 ± 3.1
same,"Analgetic effect, %","[1]; IX 10 mg/kg, Tramal 10 mg/kg, alone or combined",33.6%
same,"latent time of nociception threshold, M ± m","""hot plate"" test in mice; 30 minutes post administration",8.4 ± 1.23 s
same,"latent time of nociception threshold, M ± m","""hot plate"" test in mice; 60 minutes post administration",7.36 ± 1.04 s
same,"latent time of nociception threshold, M ± m","""hot plate"" test in mice; 120 minutes post administration",9.83 ± 2.52 s
same,"latent time of nociception threshold, M ± m","""hot plate"" test in mice; 240 minutes post administration",7.72 ± 0.24 s
same,response vs control in vivo at 10 mg/kg,"""hot plate"" test in mice; 0.5 h, 30 minutes",203%
same,change in vivo at 10 mg/kg,"""hot plate"" test in mice; 0.5 h, 30 minutes",103%
same,response vs control in vivo at 10 mg/kg,"""hot plate"" test in mice; 1 h, 60 minutes",178%
same,change in vivo at 10 mg/kg,"""hot plate"" test in mice; 1 h, 60 minutes",77.8%
same,response vs control in vivo at 10 mg/kg,"""hot plate"" test in mice; 2 h, 120 minutes",237%
same,change in vivo at 10 mg/kg,"""hot plate"" test in mice; 2 h, 120 minutes",137%
same,response vs control in vivo at 10 mg/kg,"""hot plate"" test in mice; 4 h, 240 minutes",186%
same,change in vivo at 10 mg/kg,"""hot plate"" test in mice; 4 h, 240 minutes",86.5%
same,inhibition in vivo at 10 mg/kg,"[2]; Mus musculus, ip, 0.25 h, read-out: Analgetic effect (%)",68%
same,response vs control in vivo at 10 mg/kg,"[2]; Mus musculus, ip, 0.25 h, read-out: C, % to the control",32%
same,C ± m (the number of contortions for 15 minutes),[2]; 60 minutes prior to acetic acid,11.8 ± 2.9
same,Prostanoids,cyclooxygenase; b308 reads these as % cyclooxygenase inhibition,−33
same,6-keto-PGF1α,cyclooxygenase; change,−30
same,AA (arachidonic acid),cyclooxygenase; change,+47
same,PGE2,cyclooxygenase; change,−38
same,PGF2α,cyclooxygenase; change,−27
same,TXB2,cyclooxygenase; change,−40
same,% change from the control,[3]; 10 mg/kg,0%
same,"Duration of hypoxia (life span), M ± m",[3]; 10 mg/kg,25.3 ± 0.8 min
same,"Duration of hypoxia (life span), M ± m",[3]; 50 mg/kg,32.6 ± 2.6 min
same,% change from the control,"mice, forced swimming",−21%
same,"immobilization time, M ± m","mice, forced swimming; fixed for 4 minutes, control 195.0 ± 10.3",154.0 ± 11.7 s
